The values below come from PubChem BioAssay (NCI).

Test systems include CAKI-1 renal; SK-MEL-2 melanoma; SN12C renal; NCI-H23 lung; NCI/ADR-RES ovarian; OVCAR-3 ovarian; SK-MEL-5 melanoma; SNB-75 CNS; U251 CNS; COLO 205 colon.
Assay in all cases: NCI anticancer screen, dose series, 48 h

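Test compounds were applied to cells in 96-well plates for 48 hours at 5 doses. At the GI50, growth is halved. TGI denotes the concentration required for complete inhibition of growth.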

For the compound `COCC(C(=O)OC1C/C=C/C=C/C(=O)OC(C(C)C(O)C(C)CCC(OC(=O)C(C)N(C)C)C(C)C(OC(C)=O)C(C)/C=C/N(C)C=O)C/C=C/C(OC)CC(C)C/C=C(\C)C(OC)CCC(C)C(O)C1C)N(C)C` (configuration not stated), the GI50 in the assay with CAKI-1 renal, in the assay on SK-MEL-2 melanoma, with SN12C renal, with NCI-H23 lung, in the assay with NCI/ADR-RES ovarian and in the assay on OVCAR-3 ovarian was less than 0.0001 µM in each case. For the same compound, the GI50 in the assay with SK-MEL-5 melanoma, in the assay with SNB-75 CNS and with U251 CNS was less than 0.0001 µM throughout. Besides, the TGI is 0.007 µM with CAKI-1 renal; 0.00774 µM with SK-MEL-2 melanoma; 0.105 µM in the assay on SN12C renal; more than 0.666 µM in the assay with NCI-H23 lung; 0.000552 µM in the assay with NCI/ADR-RES ovarian; 0.00191 µM in the assay on OVCAR-3 ovarian. Also, the TGI with SK-MEL-5 melanoma amounted to 0.00144 µM; in the assay with SNB-75 CNS, 0.0231 µM; in the assay with U251 CNS, 0.154 µM.

Consider `Nc1ccccc1C#Cc1ccccc1C#Cc1cccs1`, for which the GI50 is 11 µM with CAKI-1 renal; 30.2 µM in the assay on SK-MEL-2 melanoma; 14.5 µM in the assay on SN12C renal; 17.2 µM in the assay with NCI-H23 lung; 16 µM in the assay on NCI/ADR-RES ovarian; 13.1 µM in the assay with OVCAR-3 ovarian. Besides, the GI50 in the assay on SK-MEL-5 melanoma was 7.59 µM; with SNB-75 CNS, 82.7 µM; with U251 CNS, 13.6 µM. Further, the TGI with CAKI-1 renal is 25.1 µM; in the assay on SK-MEL-2 melanoma, 73.5 µM; in the assay with SN12C renal, 29.1 µM; with NCI-H23 lung it was 34.1 µM; with NCI/ADR-RES ovarian, 30.7 µM; in the assay on OVCAR-3 ovarian it was 26.4 µM. The figures for the TGI with SK-MEL-5 melanoma, in the assay on SNB-75 CNS and in the assay on U251 CNS were 22.3 µM, more than 100 µM and 27.3 µM, respectively.

As for `O=C(O)c1ccccc1NCn1c(=S)sc2ccccc21`, the TGI is more than 100 µM with CAKI-1 renal; more than 100 µM in the assay with SK-MEL-2 melanoma; 56.7 µM in the assay with COLO 205 colon; more than 100 µM in the assay on SN12C renal; 63.4 µM with NCI-H23 lung; more than 100 µM in the assay on NCI/ADR-RES ovarian. Further, the TGI in the assay with OVCAR-3 ovarian, with SNB-75 CNS and in the assay with U251 CNS was more than 100 µM each time.

`Cc1ccc(C2CC(c3ccc(Nc4ccnc5cc(Cl)ccc45)cc3)=NN2C=O)cc1` (configuration not stated): the GI50 in the assay with CAKI-1 renal was more than 100 µM; in the assay on COLO 205 colon, 4.59 µM; in the assay on SN12C renal it was 7.23 µM; with NCI-H23 lung it was 6.93 µM; in the assay with NCI/ADR-RES ovarian it was 5.22 µM; in the assay on OVCAR-3 ovarian, 6.82 µM. In addition, the GI50 in the assay on SK-MEL-5 melanoma is 1.74 µM; in the assay on SNB-75 CNS it was more than 100 µM; in the assay on U251 CNS, more than 100 µM. The TGI in the assay with CAKI-1 renal, in the assay with COLO 205 colon, with SN12C renal, in the assay with NCI-H23 lung, with NCI/ADR-RES ovarian and in the assay on OVCAR-3 ovarian was more than 100 µM each time. For the same compound, the TGI in the assay with SK-MEL-5 melanoma, with SNB-75 CNS and with U251 CNS was more than 100 µM throughout.

As to `CC(C)OP(=O)(O)c1ncc(-c2ccc(C(F)(F)F)cc2)c(NC2CCCCCC2)n1`, the GI50 in the assay on CAKI-1 renal was more than 100 µM; in the assay on COLO 205 colon, more than 100 µM; in the assay with SN12C renal, more than 100 µM; in the assay on NCI-H23 lung it was more than 100 µM; with NCI/ADR-RES ovarian, more than 100 µM; with OVCAR-3 ovarian, 87 µM. Also, the GI50 was 51 µM with SK-MEL-5 melanoma, more than 100 µM with SNB-75 CNS and 77.9 µM in the assay on U251 CNS. The TGI in the assay on CAKI-1 renal, in the assay with COLO 205 colon, in the assay on SN12C renal, in the assay with NCI-H23 lung, in the assay with NCI/ADR-RES ovarian and in the assay with OVCAR-3 ovarian was more than 100 µM in each case. In addition, the TGI in the assay on SK-MEL-5 melanoma, in the assay with SNB-75 CNS and in the assay with U251 CNS was more than 100 µM in each case.

Regarding `Cc1cc(NN=C(c2ccc(O)cc2)c2ccc(O)cc2)c([N+](=O)[O-])cc1[N+](=O)[O-]`, the GI50 with CAKI-1 renal was 18.7 µM; with COLO 205 colon it was 5.87 µM; in the assay on SN12C renal it was 6.79 µM; with NCI-H23 lung, 3.8 µM; in the assay with NCI/ADR-RES ovarian it was 3.75 µM; with OVCAR-3 ovarian, 4.14 µM. Also, the GI50 is 0.308 µM in the assay on SK-MEL-5 melanoma, 6.84 µM in the assay on SNB-75 CNS and 5.39 µM in the assay on U251 CNS. Besides, the TGI in the assay with CAKI-1 renal is 51.1 µM; in the assay on COLO 205 colon, 40.5 µM; in the assay with SN12C renal it was 24.7 µM; in the assay with NCI-H23 lung, 47.3 µM; with NCI/ADR-RES ovarian, more than 100 µM; with OVCAR-3 ovarian it was 19.4 µM. Moreover, the results for the TGI in the assay on SK-MEL-5 melanoma, in the assay with SNB-75 CNS and with U251 CNS were 3.74 µM, 60.5 µM and 81.2 µM, respectively.

As to `COc1ccc(-c2cc(/C=C/C(=O)c3ccc(N)cc3)[nH]n2)cc1`, the GI50 was 1.32 µM with CAKI-1 renal; 1.85 µM in the assay on COLO 205 colon; 1.89 µM in the assay with SN12C renal; 3.22 µM with NCI-H23 lung; 2.86 µM in the assay on NCI/ADR-RES ovarian; 1.25 µM in the assay on OVCAR-3 ovarian. The values for the GI50 in the assay with SK-MEL-5 melanoma, with SNB-75 CNS and in the assay with U251 CNS were 2.71 µM, 2.25 µM and 1.24 µM, respectively. Further, the TGI with CAKI-1 renal amounted to 11.1 µM; in the assay with COLO 205 colon, 3.45 µM; in the assay on SN12C renal, 6.63 µM; in the assay with NCI-H23 lung, 13.1 µM; in the assay with NCI/ADR-RES ovarian it was 15.5 µM; in the assay with OVCAR-3 ovarian, 2.97 µM. Besides, the TGI is 9.25 µM in the assay on SK-MEL-5 melanoma, 11.4 µM with SNB-75 CNS and 2.57 µM in the assay on U251 CNS.
